Data taken from patent US8461181B2, “Fused heterocyclic compound and use thereof” (Sumitomo Chemical Company, Ltd., priority 2009, dated 2013).

Tests used:
Format in all cases: in vivo
Aphis gossypii [1] = assay: Test Example 1: spray on cucumber seedling inoculated with Aphis gossypii; details: 500 ppm, 10 ml sprayed on cucumber seedling inoculated with about 30 Aphis gossypii; five days after spraying
Procedure: The formulations of the present active compounds (1) to (15), (17) to (25), (27) to (56), (101) to (103), (105) to (108), (117), (118), (121) to (130), (133) to (144), (147), (148), (152) to (156), (202), (204) to (206), (208), (209), (211) to (213), and (216) to (221) obtained by Formulation Example 5 were diluted with water so that the active ingredient concentration was 500 ppm, to prepare spray solutions for test. Separately, a cucumber seedling (second true leaf spreading stage) planted on a plastic cup was inoculated with about 30 Aphis gossypii, and left for 1 day. The above-described diluted solutions were sprayed each in an amount of 10 ml on this seedling. Five days after spraying, the number of insect of living Aphis gossypii […] on the leaves of this cucumber was checked, and the control value was calculated according to the following formula. Control value (%)={1-(Cb×Tai)/(Cai×Tb)}×100 Letters in the formula represent the following meanings. Cb: the number of insect before treatment on non-treated district Cai: the number of insect in observation on non-treated district Tb: the number of insect before treatment on treated district Tai: the number of insect in observation on treated district

Bemisia tabaci = assay: Test Example 5: spray on tomato seedling with Bemisia tabaci larvae; details: 168 h, 10 ml/cup sprayed on tomato seedling with hatching Bemisia tabaci larvae, 7 days at 25° C.
Procedure: The formulations of the present active compounds (1) to (5), (7) to (15), (17) to (21), (25), (28) to (45), (48) to (56), (101) to (103), (106), (107), (117), (118), (121) to (145), (147) to (151), (153) to (155), (204), (206), (208), (209), (211) to (213) and (216) to (221) obtained by Formulation Example 5 were diluted with water so that the active ingredient concentration was 500 ppm, to prepare spray solutions for test. Separately, on a tomato seedling planted on a plastic cup, Bemisia tabaci adult insects were released and allowed to lay eggs for about 24 hours. The tomato seedling was kept in a greenhouse […], and the above-described spray solutions for test were sprayed at a proportion of 10 ml/cup on the condition of hatching of larvae from the laid eggs, and kept in a greenhouse of 25° C. for 7 days. The number of living larvae on the tomato leaves was checked, and the control value was calculated according to the following formula. Control value (%)={1−(Cb×Tai)/(Cai×Tb)}×100 Letters in the formula represent the following meanings. Cb: the number of insect before treatment on non-treated district Cai: the number of insect in observation on non-treated district Tb: the number of insect before treatment on treated district Tai: the number of insect in observation on treated district

Nilaparvata lugens [2] = assay: Test Example 9: foot drench of rice seedling, twenty first instar larvae of Nilaparvata lugens; details: soil, 144 h, 5 ml drench at foot of rice seedling, kept 7 days, twenty first instar larvae released, further 6 days
Aphis gossypii [3] = assay: Test Example 4: foot drench of cucumber seedling in plastic cup, inoculation after 7 days, Aphis gossypii; details: soil, 144 h, 5 ml drench at foot of cucumber seedling in plastic cup, kept 7 days at 25° C., inoculated, further 6 days
Outline: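 Cucumber seedlings at second true leaf stage were soil-drenched with 5 ml of 500 ppm active ingredient and held 7 days at 25° C in greenhouse. Then 30 aphids (all stages) were placed on leaves; live insects counted 6 days later, control value (%) from treated/untreated counts before and after.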

Aphis gossypii [4] = assay: Test Example 2: foot drench of cucumber seedling on urethane mat, Aphis gossypii; details: soil, 168 h, 5 ml drench at foot of cucumber seedling on urethane mat, inoculated one day after treatment, checked seven days after
Procedure: The formulations of the present active compounds (4), (5), (8), (9), (11), (12), (14), (15), (17), (20), (35) to (45), (48) to (51), (54) to (56), (206), (209) and (211) to (213) obtained by Formulation Example 5 were diluted with water so that the active ingredient concentration was 500 ppm, to prepare diluted solutions for test. Separately, a cucumber seedling (second true leaf spreading stage) planted on a urethane mat was drenched at its foot with each 5 ml of the diluted solutions, and one day after treatment, the cucumber leaf surface was inoculated with 30 Aphis gossypii (whole stage). Further seven days after, the number of insect of living Aphis gossypii […] on the leaves of this cucumber was checked, and the control value was calculated according to the following formula. Control value (%)={1-(Cb×Tai)/(Cai×Tb)}×100 Letters in the formula represent the following meanings. Cb: the number of insect before treatment on non-treated district Cai: the number of insect in observation on non-treated district Tb: the number of insect before treatment on treated district Tai: the number of insect in observation on treated district

Nilaparvata lugens [5] = assay: Test Example 7: foot drench of rice seedling, thirty first instar larvae of Nilaparvata lugens; details: soil, 144 h, 5 ml drench at foot of rice seedling, kept 7 days, thirty first instar larvae released, further 6 days
Procedure: The formulations of the present active compounds (11), (13) to (15), (17), (23), (26), (35) to (41), (43) to (45), (48) to (51), (54), (55), (209), (211) and (212) obtained by Formulation Example 5 were diluted with water so that the active ingredient concentration was 500 ppm, to prepare diluted solutions for test. Separately, a rice seedling (2 weeks after sowing, second leaf spreading stage) planted on a plastic cup was drenched at its foot with each 5 ml of the diluted solutions, and kept in a greenhouse of 25° C. for 7 days. Thirty first instar larvae of Nilaparvata lugens were released, and further kept in the greenhouse for 6 days. The number of insect of living Nilaparvata lugens […] on rice was checked, and the control value was calculated according to the following formula. Control value (%)={1-(Cb×Tai)/(Cai×Tb)}×100 Letters in the formula represent the following meanings. Cb: the number of insect before treatment on non-treated district Cai: the number of insect in observation on non-treated district Tb: the number of insect before treatment on treated district Tai: the number of insect in observation on treated district

SMILES | control value (Aphis gossypii [1]) | pest or weed control at 500 ppm (Bemisia tabaci) [%] | pest or weed control at 500 ppm (Aphis gossypii [4]) [%] | also measured
CC(CC(=O)O)n1c(-c2ccncc2)nc2cc(C(F)(F)F)ccc21 (stereo not shown) [comparative compound (B)] | less than 30% | – | – | –
Cc1cc2nc(-c3ccncc3)n(C)c2cc1C [comparative compound (C)] | less than 30% | – | – | –
COCCc1cnccc1-c1nc2cc(C(F)(F)F)cnc2n1C [present active compound 106] | – | ≥ 90 | – | pest or weed control at 500 ppm (Nilaparvata lugens [2]): ≥ 90%; pest or weed control at 500 ppm (Aphis gossypii [3]): ≥ 90%
CCCCOc1cnccc1-c1nc2cc(C(F)(F)F)ccc2n1C [present active compound 206, 2-(3-butoxypyridin-4-yl-)-1-methyl-5-trifluoromethyl-1H-benzimidazole] | – | ≥ 90 | ≥ 90 | –
C=C(CF)Oc1cnccc1-c1nc2cc(C(F)(F)F)ccc2n1C [present active compound 209, 2-[3-(1-fluoromethyl-vinyloxy)-pyridin-4-yl-]-1-methyl-5-trifluoromethyl-1H-benzimidazole] | – | ≥ 90 | ≥ 90 | pest or weed control at 500 ppm (Nilaparvata lugens [5]): ≥ 90%
